20 compounds from US20090076062A1, “Organic Compounds” (priority 2007, published 2009) can be followed below.

As usually defined, the IC50 is the point on the concentration scale where inhibition reaches its midpoint.

This assay has as its target T1, Recombinant human renin (Homo sapiens, UniProt P00797).
T1 construct: made in house; host or cells: Chinese Hamster Ovary cells
T1 sequence (P00797 67-406): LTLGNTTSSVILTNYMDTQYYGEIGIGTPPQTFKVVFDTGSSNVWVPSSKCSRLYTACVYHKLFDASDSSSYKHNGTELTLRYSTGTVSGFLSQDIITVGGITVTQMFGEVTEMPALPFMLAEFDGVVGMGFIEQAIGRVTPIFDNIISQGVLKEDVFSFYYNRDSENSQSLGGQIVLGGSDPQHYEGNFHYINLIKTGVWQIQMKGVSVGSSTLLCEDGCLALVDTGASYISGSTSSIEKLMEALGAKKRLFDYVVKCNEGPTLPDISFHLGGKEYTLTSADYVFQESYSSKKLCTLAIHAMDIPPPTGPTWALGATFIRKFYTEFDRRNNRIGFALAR
The assay can be described thus: Renin inhibitory activity in vitro, hu-renin FRET assay. In kind it is biochemical. As for the experimental part:
Recombinant human renin (expressed in Chinese Hamster Ovary cells and purified using standard methods) at 4 nM concentration is incubated with test compound at various concentrations for 1 h at RT in 0.1 M Tris-HCl buffer, pH 7.4, containing 0.05 M NaCl, 0.5 mM EDTA and 0.05% CHAPS. Synthetic peptide substrate Arg-Glu(EDANS)-Ile-His-Pro-Phe-His-Leu-Val-Ile_His_Thr-Lys(DABCYL)-Arg9 is added to a final concentration of 2 μM and increase in fluorescence is recorded at an excitation wave-length of 340 nm and at an emission wave-length of 485 nm in a microplate spectro-fluorimeter. IC50 values are calculated from percentage of inhibition of renin activity as a function of test compound concentration (Fluorescence Resonance Energy Transfer, FRET, assay). Recombinant human renin (expressed in Chinese Hamster Ovary cells and purified using standard methods) at 1 nM concentration is incubated with test compound at various concentrations for 1.5 h at 37° C. in 0.1 M Tris/HCl pH 7.4 containing 0.05 M NaCl, 0.5 mM EDTA and 0.025% (w/v) CHAPS. Synthetic peptide substrate Ac-Ile-His-Pro-Phe-His-Leu-Val-Ile-His-Asn-Lys-[DY-505-X5] is added to a final concentration of 5 μM. The enzyme reaction is stopped by adding 6 μL of 1.0% TFA. The product of the reaction is separated by HPLC and quantified by spectrophotometric measurement at […] wave-length. IC50 values are calculated from percentage of inhibition of renin activity as a function of test compound concentration.
Renin inhibitory activity was assessed in vitro by FRET assay (as above described). Results for representative compounds of formula I are: […]
As for `COCCCOc1cc(C[C@@H](C[C@H](N)[C@@H](O)C[C@H](C(=O)NCC2CCCCO2)C(C)C)C(C)C)ccc1OC` (single isomer, unassigned) [Example 19, (2S,4S,5S,7S)-5-Amino-4-hydroxy-2-isopropyl-7-[4-methoxy-3-(3-methoxy-propoxy)-benzyl]-8-methyl-nonanoic acid [2(R) or 2(S)-1-(tetrahydro-pyran-2-yl)methyl]-amide], the IC50 came out at 8 nM.
The figure for `COCCCOc1cc(C[C@@H](C[C@H](N)[C@@H](O)C[C@H](C(=O)NCC2CCCCO2)C(C)C)C(C)C)ccc1OC` (single isomer, unassigned) [Example 20, (2S,4S,5S,7S)-5-Amino-4-hydroxy-2-isopropyl-7-[4-methoxy-3-(3-methoxy-propoxy)-benzyl]-8-methyl-nonanoic acid [(R)- or (S)-1-(tetrahydro-pyran-2-yl)methyl]-amide] is 7 nM; for `COCCCOc1cc(C[C@@H](C[C@H](N)[C@@H](O)C[C@H](C(=O)NC2CCCOC2)C(C)C)C(C)C)ccc1OC` (single isomer, unassigned) [Example 22, (2S,4S,5S,7S)-5-Amino-4-hydroxy-2-isopropyl-7-[4-methoxy-3-(3-methoxy-propoxy)-benzyl]-8-methyl-nonanoic acid [(R)- or (S)-3-(tetrahydro-pyran-3-yl)]-amide] it is 2.5 nM.
On to `COCCCOc1cc(C[C@@H](C[C@H](N)[C@@H](O)C[C@H](C(=O)NC2CCCOC2)C(C)C)C(C)C)ccc1OC` (single isomer, unassigned) [Example 23, (2S,4S,5S,7S)-5-Amino-4-hydroxy-2-isopropyl-7-[4-methoxy-3-(3-methoxy-propoxy)-benzyl]-8-methyl-nonanoic acid [(R)- or (S)-3-(tetrahydro-pyran-3-yl)]-amide], for which the 50% inhibitory concentration (IC50) was 0.5 nM.
For the compound `COCCCOc1cc(C[C@@H](C[C@H](N)[C@@H](O)C[C@H](C(=O)NCC2CCOC2)C(C)C)C(C)C)ccc1OC` (single isomer, unassigned) [Example 29, (2S,4S,5S,7S)-5-Amino-4-hydroxy-2-isopropyl-7-[4-methoxy-3-(3-methoxy-propoxy)-benzyl]-8-methyl-nonanoic acid [3(R) or 3(S)-1-(tetrahydro-furan-3-yl)methyl]-amide], the concentration for half-maximal inhibition (IC50) was 0.4 nM.
On to `COCCCOc1cc(C[C@@H](C[C@H](N)[C@@H](O)C[C@H](C(=O)NCC2CCOC2)C(C)C)C(C)C)ccc1OC` (single isomer, unassigned) [Example 30, (2S,4S,5S,7S)-5-Amino-4-hydroxy-2-isopropyl-7-[4-methoxy-3-(3-methoxy-propoxy)-benzyl]-8-methyl-nonanoic acid [(R) or (S)-1-(tetrahydro-furan-3-yl)methyl]-amide], for which the IC50 is 0.8 nM.
As to `COCCCOc1cc(C[C@@H](C[C@H](N)[C@@H](O)C[C@H](C(=O)NC2CCOCC2)C(C)C)C(C)C)ccc1OC` [Example 1, (2S,4S,5S,7S)-5-Amino-4-hydroxy-2-isopropyl-7-[4-methoxy-3-(3-methoxy-propoxy)-benzyl]-8-methyl-nonanoic acid (tetrahydro-pyran-4-yl)-amide], the IC50 came to 1.4 nM.
To `COCCCOc1cc(C[C@@H](C[C@H](N)[C@@H](O)C[C@H](C(=O)N[C@@H]2CCN(C)C2)C(C)C)C(C)C)ccc1OC` [Example 2, (2S,4S,5S,7S)-5-Amino-4-hydroxy-2-isopropyl-7-[4-methoxy-3-(3-methoxy-propoxy)-benzyl]-8-methyl-nonanoic acid ((R)-1-methyl-pyrrolidin-3-yl)-amide] belongs 4 nM; to `COCCCOc1cc(C[C@@H](C[C@H](N)[C@@H](O)C[C@H](C(=O)N[C@H]2CCN(C)C2)C(C)C)C(C)C)ccc1OC` [Example 3, (2S,4S,5S,7S)-5-Amino-4-hydroxy-2-isopropyl-7-[4-methoxy-3-(3-methoxy-propoxy)-benzyl]-8-methyl-nonanoic acid ((S)-1-methyl-pyrrolidin-3-yl)-amide], 0.7 nM; to `COCCCOc1cc(C[C@@H](C[C@H](N)[C@@H](O)C[C@H](C(=O)NC2CCN(C)CC2)C(C)C)C(C)C)ccc1OC` [Example 5, (2S,4S,5S,7S)-5-Amino-4-hydroxy-2-isopropyl-7-[4-methoxy-3-(3-methoxy-propoxy)-benzyl]-8-methyl-nonanoic acid (1-methyl-piperidin-4-yl)-amide], 3.2 nM.
On to `COCCCOc1cc(C[C@@H](C[C@H](N)[C@@H](O)C[C@H](C(=O)NC[C@@H]2CCCO2)C(C)C)C(C)C)ccc1OC` [Example 10, (2S,4S,5S,7S)-5-Amino-4-hydroxy-2-isopropyl-7-[4-methoxy-3-(3-methoxy-propoxy)-benzyl]-8-methyl-nonanoic acid [(S)-1-(tetrahydro-furan-2-yl)methyl]-amide], for which the IC50 stood at 3.5 nM.
`COCCCOc1cc(C[C@@H](C[C@H](N)[C@@H](O)C[C@H](C(=O)NC[C@H]2CCCO2)C(C)C)C(C)C)ccc1OC` [Example 11, (2S,4S,5S,7S)-5-Amino-4-hydroxy-2-isopropyl-7-[4-methoxy-3-(3-methoxy-propoxy)-benzyl]-8-methyl-nonanoic acid [(R)-1-(tetrahydro-furan-2-yl)methyl]-amide]: the 50% inhibitory concentration (IC50) worked out at 4 nM.
As for `COCCCOc1cc(C[C@@H](C[C@H](N)[C@@H](O)C[C@H](C(=O)N[C@@H]2CCOC2)C(C)C)C(C)C)ccc1OC` [Example 12, (2S,4S,5S,7S)-5-Amino-4-hydroxy-2-isopropyl-7-[4-methoxy-3-(3-methoxy-propoxy)-benzyl]-8-methyl-nonanoic acid ((R)-tetrahydrofuran-3-yl)-amide], the IC50 is 0.7 nM.
To `COCCCOc1cc(C[C@@H](C[C@H](N)[C@@H](O)C[C@H](C(=O)N[C@H]2CCOC2)C(C)C)C(C)C)ccc1OC` [Example 13, (2S,4S,5S,7S)-5-Amino-4-hydroxy-2-isopropyl-7-[4-methoxy-3-(3-methoxy-propoxy)-benzyl]-8-methyl-nonanoic acid ((S)-tetrahydrofuran-3-yl)-amide] belongs 0.2 nM; to `COCCCOc1cc(C[C@@H](C[C@H](N)[C@@H](O)C[C@H](C(=O)NCC2CCOCC2)C(C)C)C(C)C)ccc1OC` [Example 14, (2S,4S,5S,7S)-5-Amino-4-hydroxy-2-isopropyl-7-[4-methoxy-3-(3-methoxy-propoxy)-benzyl]-8-methyl-nonanoic acid (tetrahydro-pyran-4-ylmethyl)-amide], 1.4 nM.
As for `COCCCOc1cc(C[C@@H](C[C@H](N)[C@@H](O)C[C@H](C(=O)NCc2ccoc2)C(C)C)C(C)C)ccc1OC` [Example 17, (2S,4S,5S,7S)-5-Amino-4-hydroxy-2-isopropyl-7-[4-methoxy-3-(3-methoxy-propoxy)-benzyl]-8-methyl-nonanoic acid (furan-3-ylmethyl)-amide], the concentration for half-maximal inhibition (IC50) turned out to be 2.5 nM.
The figure for `COCCCOc1cc(C[C@@H](C[C@H](N)[C@@H](O)C[C@H](C(=O)NCc2ccco2)C(C)C)C(C)C)ccc1OC` [Example 18, (2S,4S,5S,7S)-5-Amino-4-hydroxy-2-isopropyl-7-[4-methoxy-3-(3-methoxy-propoxy)-benzyl]-8-methyl-nonanoic acid (furan-2-ylmethyl)-amide] is 0.9 nM; for `COCCCOc1cc(C[C@@H](C[C@H](N)[C@@H](O)C[C@H](C(=O)NC2CCOCC2)C(C)C)C(C)C)ccc1C` [Example 26, (2S,4S,5S,7S)-5-Amino-4-hydroxy-2-isopropyl-7-[3-(3-methoxy-propoxy)-4-methyl-benzyl]-8-methyl-nonanoic acid (tetrahydro-pyran-4-yl)-amide] it is 0.5 nM.
Turning to `COCCCOc1cc(C[C@@H](C[C@H](N)[C@@H](O)C[C@H](C(=O)NC[C@H]2CCCO2)C(C)C)C(C)C)ccc1C` [Example 27, (2S,4S,5S,7S)-5-Amino-4-hydroxy-2-isopropyl-7-[3-(3-methoxy-propoxy)-4-methyl-benzyl]-8-methyl-nonanoic acid [(R)-1-(tetrahydro-furan-2-yl)methyl]-amide], the IC50 was determined as 0.5 nM.
To `COCCCOc1cc(C[C@@H](C[C@H](N)[C@@H](O)C[C@H](C(=O)NC[C@@H]2CCCO2)C(C)C)C(C)C)ccc1C` [Example 28, (2S,4S,5S,7S)-5-Amino-4-hydroxy-2-isopropyl-7-[3-(3-methoxy-propoxy)-4-methyl-benzyl]-8-methyl-nonanoic acid [(S)-1-(tetrahydro-furan-2-yl)methyl]-amide] belongs 0.6 nM.
